Results reported in patent US12162848B2, “Inhibitors of protein tyrosine phosphatase, compositions, and methods of use” (BRISTOL-MYERS SQUIBB COMPANY, priority 2022, dated 2024).

Tests used:
B16-F10 cells = test: Cell proliferation assay (CellTiter-Glo) in IFN-gamma treated B16-F10 cells; format: cell-based; settings: 120 h, mouse IFN-gamma 10 ng/mL, read-out: PTPN2 Prolif 5d B16F10 EC50
[1] = test system: phosphorylated STAT1 protein levels in B16-F10 cells; test: Phospho-STAT1 (Tyr701) HTRF assay in IFN-gamma treated B16-F10 cells; format: cell-based; settings: mouse IFN-gamma 100 ng/mL, 1 hour, read-out: pSTAT1 HTRF B16 EC50
Method in brief: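 Mouse B16-F10 cells, 10,000/well, pretreated 1 h with compound (0.15% DMSO), then stimulated with mouse IFN-gamma at 100 ng/mL final for 1 h at 37 C. Phospho-STAT1 (Tyr701) measured by HTRF.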

PTPN2 enzyme = biological target: T1, PTPN2 enzyme (Homo sapiens, UniProt P17706); test: PhosphoSens PTPN2 biochemical assay; settings: substrate AQT0264 20 μM, room temperature; read-out: PTPN2 BCHEM IC50
T1 sequence (P17706 1-415): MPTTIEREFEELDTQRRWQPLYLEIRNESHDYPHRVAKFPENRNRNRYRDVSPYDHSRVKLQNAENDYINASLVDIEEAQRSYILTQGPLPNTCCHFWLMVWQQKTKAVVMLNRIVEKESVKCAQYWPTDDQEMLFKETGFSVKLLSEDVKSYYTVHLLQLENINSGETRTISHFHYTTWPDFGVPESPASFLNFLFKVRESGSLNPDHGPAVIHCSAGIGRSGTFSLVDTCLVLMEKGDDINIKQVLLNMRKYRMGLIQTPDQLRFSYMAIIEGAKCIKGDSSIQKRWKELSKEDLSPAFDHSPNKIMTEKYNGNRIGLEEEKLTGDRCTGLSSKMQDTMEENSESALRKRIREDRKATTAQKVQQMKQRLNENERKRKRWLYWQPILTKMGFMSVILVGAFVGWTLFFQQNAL
Method in brief: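 PhosphoSens fluorescence format with 20 μM final AQT0264 substrate and […] in 50 mM HEPES pH 7.5, 500 μM EGTA, […], 0.01% Brij-35, 1% glycerol, 1 mM DTT, 0.2 mg/mL BSA. Compounds in 3-fold dilution series; progress curves read (ex 360/em 480 nm) every 71 s for 1 h at room temperature.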

`CC(C)CCN1CCC[C@@H](NCc2cc(O)c(N3CC(=O)NS3(=O)=O)c(F)c2)C1` [EXAMPLE 62, (R)-5-(2-fluoro-6-hydroxy-4-(((1-isopentylpiperidin-3-yl)amino)methyl)phenyl)-1,2,5-thiadiazolidin-3-one 1,1-dioxide] was tested, and the EC50 (B16-F10 cells) was 14600 nM, the EC50 [1] was ≥ 15000 nM and the IC50 (PTPN2 enzyme) was 88 nM.

With `CC(C)CCN1CCC[C@H](NCc2cc(O)c(N3CC(=O)NS3(=O)=O)c(F)c2)C1` [EXAMPLE 63, 5-[2-fluoro-6-hydroxy-4-[[[(3S)-1-isopentyl-3-piperidyl]amino]methyl]phenyl]-1,1-dioxo-1,2,5-thiadiazolidin-3-one] the EC50 (B16-F10 cells) was ≥ 15000 nM, the EC50 [1] was ≥ 15000 nM and the IC50 (PTPN2 enzyme) was 153 nM.

In the case of `O=C1CN(c2c(O)cc(CN[C@@H]3CCCOC3)cc2F)S(=O)(=O)N1` [EXAMPLE 64, (R)-5-(2-fluoro-6-hydroxy-4-(((tetrahydro-2H-pyran-3-yl)amino)methyl)phenyl)-1,2,5-thiadiazolidin-3-one 1,1-dioxide], the EC50 (B16-F10 cells) is reported as 2720 nM, the EC50 [1] is reported as 2180 nM and the IC50 (PTPN2 enzyme) is reported as 139 nM.

With `O=C1CN(c2c(O)cc(CN[C@H]3CCCNC3)cc2F)S(=O)(=O)N1` [EXAMPLE 65, (S)-5-(2-fluoro-6-hydroxy-4-((piperidin-3-ylamino)methyl)phenyl)-1,2,5-thiadiazolidin-3-one 1,1-dioxide] the EC50 (B16-F10 cells) was 6860 nM, the EC50 [1] was 5200 nM and the IC50 (PTPN2 enzyme) was 130 nM.

For `CC1(C)CCC[C@H](NCc2cc(O)c(N3CC(=O)NS3(=O)=O)c(F)c2)C1` [EXAMPLE 66, (S)-5-(4-(((3,3-dimethylcyclohexyl)amino)methyl)-2-fluoro-6-hydroxyphenyl)-1,2,5-thiadiazolidin-3-one 1,1-dioxide], the EC50 (B16-F10 cells) was 772 nM, the EC50 [1] was 782 nM and the IC50 (PTPN2 enzyme) was 42 nM.

For `O=C1CN(c2c(O)cc(CN[C@H]3CCCOC3)cc2F)S(=O)(=O)N1` [EXAMPLE 67, (S)-5-(2-fluoro-6-hydroxy-4-(((tetrahydro-2H-pyran-3-yl)amino)methyl)phenyl)-1,2,5-thiadiazolidin-3-one 1,1-dioxide], the EC50 (B16-F10 cells) was 1670 nM, the EC50 [1] was 2700 nM and the IC50 (PTPN2 enzyme) was 126 nM.

For `CC(=O)N1CCC[C@H](NCc2cc(O)c(N3CC(=O)NS3(=O)=O)c(F)c2)C1` [EXAMPLE 71, 5-[4-[[[(3S)-1-acetyl-3-piperidyl]amino]methyl]-2-fluoro-6-hydroxy-phenyl]-1,1-dioxo-1,2,5-thiadiazolidin-3-one], the EC50 (B16-F10 cells) was 1890 nM, the EC50 [1] was 2910 nM and the IC50 (PTPN2 enzyme) was 25 nM.

Molecule `CS(=O)(=O)N1CCC[C@@H](NCc2cc(O)c(N3CC(=O)NS3(=O)=O)c(F)c2)C1` [EXAMPLE 72, 5-[2-fluoro-6-hydroxy-4-[[[(3R)-1-methylsulfonyl-3-piperidyl]amino]methyl]phenyl]-1,1-dioxo-1,2,5-thiadiazolidin-3-one] has an EC50 (B16-F10 cells) of 4690 nM, an EC50 [1] of 3560 nM and an IC50 (PTPN2 enzyme) of 54 nM.

Work on `O=C1CN(c2c(O)cc(CN[C@H]3CCCN(S(=O)(=O)C4CC4)C3)cc2F)S(=O)(=O)N1` [EXAMPLE 73, 5-[4-[[[(3S)-1-cyclopropylsulfonyl-3-piperidyl]amino]methyl]-2-fluoro-6-hydroxy-phenyl]-1,1-dioxo-1,2,5-thiadiazolidin-3-one] yielded an EC50 (B16-F10 cells) of 9840 nM, an EC50 [1] of 7800 nM and an IC50 (PTPN2 enzyme) of 10 nM.

In the case of `O=C1CN(c2c(O)cc(CN[C@@H]3CCCN(S(=O)(=O)C4CC4)C3)cc2F)S(=O)(=O)N1` [EXAMPLE 74, 5-[4-[[[(3R)-1-cyclopropylsulfonyl-3-piperidyl]amino]methyl]-2-fluoro-6-hydroxy-phenyl]-1,1-dioxo-1,2,5-thiadiazolidin-3-one], the EC50 (B16-F10 cells) is reported as 5650 nM, the EC50 [1] is reported as 11000 nM and the IC50 (PTPN2 enzyme) is reported as 17 nM.

In the case of `CS(=O)(=O)N1CCC[C@H](NCc2cc(O)c(N3CC(=O)NS3(=O)=O)c(F)c2)C1` [EXAMPLE 75, 5-[2-fluoro-6-hydroxy-4-[[[(3S)-1-methylsulfonyl-3-piperidyl]amino]methyl]phenyl]-1,1-dioxo-1,2,5-thiadiazolidin-3-one], the EC50 (B16-F10 cells) is reported as 2190 nM, the EC50 [1] is reported as 3220 nM and the IC50 (PTPN2 enzyme) is reported as 37 nM.

In the case of `O=C(O)CC(=O)N1CCC[C@H](NCc2cc(O)c(N3CC(=O)NS3(=O)=O)c(F)c2)C1` [EXAMPLE 76, 3-[(3S)-3-[[3-fluoro-5-hydroxy-4-(1,1,4-trioxo-1,2,5-thiadiazolidin-2-yl)phenyl]methylamino]-1-piperidyl]-3-oxo-propanoic acid], the EC50 (B16-F10 cells) is reported as ≥ 15000 nM, the EC50 [1] is reported as ≥ 15000 nM and the IC50 (PTPN2 enzyme) is reported as 12 nM.

With `O=C1CN(c2c(O)cc(CNc3cc(F)ccc3Cl)cc2F)S(=O)(=O)N1` [EXAMPLE 80, 5-[4-[(2-chloro-5-fluoro-anilino)methyl]-2-fluoro-6-hydroxy-phenyl]-1,1-dioxo-1,2,5-thiadiazolidin-3-one] the EC50 (B16-F10 cells) was ≥ 15000 nM, the EC50 [1] was ≥ 15000 nM and the IC50 (PTPN2 enzyme) was 50 nM.

For `CC(C)CCN1CCN(c2cc(O)c(N3CC(=O)NS3(=O)=O)c(F)c2)CC1` [EXAMPLE 83, 5-(2-fluoro-6-hydroxy-4-(4-isopentylpiperazin-1-yl)phenyl)-1,2,5-thiadiazolidin-3-one 1,1-dioxide], the EC50 (B16-F10 cells) was ≥ 15000 nM, the EC50 [1] was ≥ 15000 nM and the IC50 (PTPN2 enzyme) was 896 nM.

With `NC1CCN(c2cc(O)c(N3CC(=O)NS3(=O)=O)c(F)c2)CC1` [EXAMPLE 84, 5-(4-(4-aminopiperidin-1-yl)-2-fluoro-6-hydroxyphenyl)-1,2,5-thiadiazolidin-3-one 1,1-dioxide] the EC50 (B16-F10 cells) was ≥ 15000 nM, the EC50 [1] was ≥ 15000 nM and the IC50 (PTPN2 enzyme) was 745 nM.

`O=C1CN(c2c(O)cc(N3CCNCC3)cc2F)S(=O)(=O)N1` [EXAMPLE 85, 5-(2-fluoro-6-hydroxy-4-(piperazin-1-yl)phenyl)-1,2,5-thiadiazolidin-3-one 1,1-dioxide] was tested, and the EC50 (B16-F10 cells) was ≥ 15000 nM, the EC50 [1] was 5480 nM and the IC50 (PTPN2 enzyme) was 682 nM.

With `COCCN1CCN(c2cc(O)c(N3CC(=O)NS3(=O)=O)c(F)c2)CC1` [EXAMPLE 86, 5-(2-fluoro-6-hydroxy-4-(4-(2-methoxyethyl)piperazin-1-yl)phenyl)-1,2,5-thiadiazolidin-3-one 1,1-dioxide] the EC50 (B16-F10 cells) was ≥ 15000 nM, the EC50 [1] was ≥ 15000 nM and the IC50 (PTPN2 enzyme) was 336 nM.

With `CN(C)C1CCN(c2cc(O)c(N3CC(=O)NS3(=O)=O)c(F)c2)CC1` [EXAMPLE 87, 5-(4-(4-(dimethylamino)piperidin-1-yl)-2-fluoro-6-hydroxyphenyl)-1,2,5-thiadiazolidin-3-one 1,1-dioxide] the EC50 (B16-F10 cells) was ≥ 15000 nM, the EC50 [1] was ≥ 15000 nM and the IC50 (PTPN2 enzyme) was 318 nM.

With `CC(C)CCN1CCC(Nc2cc(O)c(N3CC(=O)NS3(=O)=O)c(F)c2)CC1` [EXAMPLE 89, 5-(2-fluoro-6-hydroxy-4-((1-isopentylpiperidin-4-yl)amino)phenyl)-1,2,5-thiadiazolidin-3-one 1,1-dioxide] the EC50 (B16-F10 cells) was ≥ 15000 nM, the EC50 [1] was ≥ 15000 nM and the IC50 (PTPN2 enzyme) was 757 nM.

With `COCCN1CCC(Nc2cc(O)c(N3CC(=O)NS3(=O)=O)c(F)c2)CC1` [EXAMPLE 90, 5-(2-fluoro-6-hydroxy-4-((1-(2-methoxyethyl)piperidin-4-yl)amino)phenyl)-1,2,5-thiadiazolidin-3-one 1,1-dioxide] the EC50 (B16-F10 cells) was ≥ 15000 nM, the EC50 [1] was ≥ 15000 nM and the IC50 (PTPN2 enzyme) was 2130 nM.

`CN1CCC(c2ccc(O)c(N3CC(=O)NS3(=O)=O)c2F)CC1` [EXAMPLE 106, 5-(2-fluoro-6-hydroxy-3-(1-methylpiperidin-4-yl)phenyl)-1,2,5-thiadiazolidin-3-one 1,1-dioxide] was tested, and the EC50 (B16-F10 cells) was ≥ 15000 nM, the EC50 [1] was ≥ 15000 nM and the IC50 (PTPN2 enzyme) was 4470 nM.
